From paper PMC7979807, “A 37-amino acid loop in the Yarrowia lipolytica hexokinase impacts its activity and affinity and modulates gene expression” (Scientific Reports, 2021)

What was measured:
Assay in all cases: Hexokinase Colorimetric Assay Kit, whole-cell extract, […] hexose
Assay type in all cases: biochemical
ScHxk2 [1] = biological target: T1, ScHxk2 (Saccharomyces cerevisiae, UniProt P04807); settings: relative to YlHxk1, absolute Km not given; extract 30 µg/mL protein in PBS pH 7.4; host hxk1 glk1
T1 construct: gene HXK2; full-length, untagged; pTEF overexpression in Y. lipolytica Po1d hxk1 glk1; whole-cell extract
T1 sequence (P04807 2-486): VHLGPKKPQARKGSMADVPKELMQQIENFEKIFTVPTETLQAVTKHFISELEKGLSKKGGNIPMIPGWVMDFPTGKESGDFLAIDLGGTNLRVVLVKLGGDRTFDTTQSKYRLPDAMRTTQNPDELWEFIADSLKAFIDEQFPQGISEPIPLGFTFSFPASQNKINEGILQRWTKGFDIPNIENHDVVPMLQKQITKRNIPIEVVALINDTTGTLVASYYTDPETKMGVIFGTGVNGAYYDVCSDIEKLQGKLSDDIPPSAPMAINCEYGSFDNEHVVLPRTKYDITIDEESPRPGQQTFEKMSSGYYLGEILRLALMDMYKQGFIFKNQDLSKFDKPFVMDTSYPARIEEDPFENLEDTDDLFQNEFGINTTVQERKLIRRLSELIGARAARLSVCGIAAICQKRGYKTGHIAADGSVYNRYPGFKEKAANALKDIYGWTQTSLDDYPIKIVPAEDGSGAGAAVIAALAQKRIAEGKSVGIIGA

YlHxk1 [2] = biological target: T2, YlHxk1 (Yarrowia lipolytica, UniProt F2Z672); settings: reference enzyme of the fold scale, no absolute Km of this study printed; otherwise same
T2 construct: gene YALI0_B22308g; full-length, 534 residues, untagged; pTEF overexpression in Y. lipolytica Po1d hxk1 glk1; whole-cell extract; gene from W29 genomic DNA
T2 sequence (F2Z672 1-534): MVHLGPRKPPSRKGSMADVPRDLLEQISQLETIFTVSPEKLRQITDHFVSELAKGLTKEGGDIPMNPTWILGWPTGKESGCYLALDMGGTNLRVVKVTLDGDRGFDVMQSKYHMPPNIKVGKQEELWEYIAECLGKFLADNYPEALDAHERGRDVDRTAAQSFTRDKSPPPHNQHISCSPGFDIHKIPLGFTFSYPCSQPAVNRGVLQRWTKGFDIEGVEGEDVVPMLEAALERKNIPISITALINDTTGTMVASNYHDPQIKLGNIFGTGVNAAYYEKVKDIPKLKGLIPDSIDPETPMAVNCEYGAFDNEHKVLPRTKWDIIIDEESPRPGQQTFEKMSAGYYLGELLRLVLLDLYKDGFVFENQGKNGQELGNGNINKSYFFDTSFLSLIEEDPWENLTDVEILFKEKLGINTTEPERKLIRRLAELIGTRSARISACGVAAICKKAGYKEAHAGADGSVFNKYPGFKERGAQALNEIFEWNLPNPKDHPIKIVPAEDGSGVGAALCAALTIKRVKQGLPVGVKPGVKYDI

YlHxk1 [3] = biological target: T3, YlHxk1 (Yarrowia lipolytica, UniProt F2Z672, DEL155-182); settings: relative to YlHxk1, absolute Km not given; extract 30 µg/mL protein in PBS pH 7.4; host hxk1 glk1
T3 construct: gene YALI0_B22308g; full-length, 534 residues, untagged; pTEF overexpression in Y. lipolytica Po1d hxk1 glk1; whole-cell extract; gene from W29 genomic DNA
T3 sequence (F2Z672 entry or part of it DEL155-182): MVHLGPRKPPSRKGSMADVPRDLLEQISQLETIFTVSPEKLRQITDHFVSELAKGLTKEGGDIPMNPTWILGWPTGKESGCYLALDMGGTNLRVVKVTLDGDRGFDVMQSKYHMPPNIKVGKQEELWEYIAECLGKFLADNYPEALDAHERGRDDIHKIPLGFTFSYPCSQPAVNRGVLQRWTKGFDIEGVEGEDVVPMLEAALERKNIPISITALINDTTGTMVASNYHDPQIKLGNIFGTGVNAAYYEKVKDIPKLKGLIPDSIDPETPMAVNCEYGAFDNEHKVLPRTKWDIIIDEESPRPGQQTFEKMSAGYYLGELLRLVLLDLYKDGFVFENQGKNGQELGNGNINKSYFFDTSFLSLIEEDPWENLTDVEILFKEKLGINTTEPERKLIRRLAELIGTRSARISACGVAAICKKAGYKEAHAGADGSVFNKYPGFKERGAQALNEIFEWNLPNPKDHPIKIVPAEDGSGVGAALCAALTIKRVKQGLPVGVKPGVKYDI

YlHxk1 [4] = biological target: T4, YlHxk1 (Yarrowia lipolytica, UniProt F2Z672, DEL7-15); settings: relative to YlHxk1, absolute Km not given; extract 30 µg/mL protein in PBS pH 7.4; host hxk1 glk1
T4 construct: gene YALI0_B22308g; full-length, 534 residues, untagged; pTEF overexpression in Y. lipolytica Po1d hxk1 glk1; whole-cell extract; gene from W29 genomic DNA
T4 sequence (F2Z672 entry or part of it DEL7-15): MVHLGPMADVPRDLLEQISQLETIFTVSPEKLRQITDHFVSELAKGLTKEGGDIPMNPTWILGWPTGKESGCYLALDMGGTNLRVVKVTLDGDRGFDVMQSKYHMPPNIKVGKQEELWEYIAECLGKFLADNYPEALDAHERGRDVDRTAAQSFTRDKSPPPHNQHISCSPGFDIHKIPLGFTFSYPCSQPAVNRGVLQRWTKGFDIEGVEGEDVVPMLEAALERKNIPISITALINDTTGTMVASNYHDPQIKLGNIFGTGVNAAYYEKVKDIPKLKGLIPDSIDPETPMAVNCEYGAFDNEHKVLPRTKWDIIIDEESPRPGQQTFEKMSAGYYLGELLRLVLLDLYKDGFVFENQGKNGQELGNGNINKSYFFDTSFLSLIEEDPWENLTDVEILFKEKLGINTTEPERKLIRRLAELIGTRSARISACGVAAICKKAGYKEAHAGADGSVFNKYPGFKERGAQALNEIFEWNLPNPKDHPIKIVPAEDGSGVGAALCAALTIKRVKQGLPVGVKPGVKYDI

YlHxk1 [5] = biological target: T5, YlHxk1 (Yarrowia lipolytica, UniProt F2Z672, E500G); settings: relative to YlHxk1, absolute Km not given; extract 30 µg/mL protein in PBS pH 7.4; host hxk1 glk1
T5 construct: gene YALI0_B22308g; full-length, 534 residues, untagged; pTEF overexpression in Y. lipolytica Po1d hxk1 glk1; whole-cell extract; gene from W29 genomic DNA
T5 sequence (F2Z672 entry or part of it E500G): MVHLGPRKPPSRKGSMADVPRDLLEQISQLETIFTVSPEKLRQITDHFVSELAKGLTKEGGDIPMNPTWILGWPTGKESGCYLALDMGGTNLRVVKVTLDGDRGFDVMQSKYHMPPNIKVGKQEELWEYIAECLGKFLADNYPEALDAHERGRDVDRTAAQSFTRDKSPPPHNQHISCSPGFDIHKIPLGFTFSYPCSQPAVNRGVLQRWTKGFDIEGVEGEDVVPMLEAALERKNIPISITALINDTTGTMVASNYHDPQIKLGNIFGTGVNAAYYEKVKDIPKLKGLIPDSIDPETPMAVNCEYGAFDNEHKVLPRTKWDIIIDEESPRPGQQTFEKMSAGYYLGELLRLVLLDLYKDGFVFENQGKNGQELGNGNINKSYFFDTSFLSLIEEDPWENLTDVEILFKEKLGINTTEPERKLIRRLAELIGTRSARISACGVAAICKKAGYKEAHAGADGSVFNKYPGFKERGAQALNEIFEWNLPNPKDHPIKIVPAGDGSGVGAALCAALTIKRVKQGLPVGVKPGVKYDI

YlHxk1 [6] = biological target: T4, YlHxk1; settings: relative to YlHxk1, absolute Km not given; extract 30 µg/mL protein in PBS pH 7.4; host hxk1 glk1; remark: listed apart in the source
YlHxk1 [7] = biological target: T5, YlHxk1; settings: relative to YlHxk1, absolute Km not given; extract 30 µg/mL protein in PBS pH 7.4; host hxk1 glk1; remark: listed apart in the source
ScHxk2 [8] = biological target: T1, ScHxk2; settings: relative to YlHxk1, absolute Km not given; extract 30 µg/mL protein in PBS pH 7.4; host hxk1 glk1; remark: listed apart in the source
YlHxk1 [9] = biological target: T3, YlHxk1; settings: relative to YlHxk1, absolute Km not given; extract 30 µg/mL protein in PBS pH 7.4; host hxk1 glk1; remark: listed apart in the source

Structure (SMILES) | 20 mM glucose (ScHxk2 [1]) [fold vs YlHxk1] | 20 mM glucose (YlHxk1 [2]) [fold vs YlHxk1] | 20 mM glucose (YlHxk1 [3]) [fold vs YlHxk1] | 20 mM glucose (YlHxk1 [4]) [fold vs YlHxk1] | relative hexokinase activity at 20 mM glucose (YlHxk1 [5]) [fold vs YlHxk1] | relative hexokinase activity on 20 mM fructose (YlHxk1 [6]) [fold vs YlHxk1] | relative hexokinase activity at 20 mM fructose (YlHxk1 [7]) [fold vs YlHxk1] | relative hexokinase activity with 20 mM fructose (ScHxk2 [8]) [fold vs YlHxk1] | hexokinase activity with 20 mM fructose, relative to YlHxk1 (YlHxk1 [9]) [fold vs YlHxk1]
OC[C@H]1OC(O)[C@H](O)[C@@H](O)[C@@H]1O (stereo partly shown) [glucose] | 1.22 ± 0.16 | 1.00 | 2.05 ± 0.32 | 0.18 ± 0.03 | 2.50 ± 0.24 |  |  |  | 
OCC1(O)OC[C@@H](O)[C@@H](O)[C@@H]1O (stereo partly shown) [fructose] |  | 1.00 |  |  |  | 3.98 ± 0.67 | 0.53 ± 0.15 | 8.00 ± 0.76 | 2.80 ± 0.28
